Results published in patent US20160175316A1, “METHOD OF PREVENTING OR TREATING ORGAN, HEMATOPOIETIC STEM CELL OR BONE MARROW TRANSPLANT REJECTION” (AbbVie Inc., priority 2006, published 2016).
Entries after “also recorded” stand apart in the source; their conditions may differ.

What was measured:
[1] = system: activated T cells; assay: Mouse mixed lymphocyte model, 3H-Thymidine incorporation; assay type: cell-based; settings: Balb/c and C57BL/6 splenocytes co-cultured for 2 days, 6 hour pulse with 3H-Thy
Protocol: Inhibition of ^3H-Thymidine incorporation by EXAMPLE A. 5×10^5 Balb/c and C57BL/6 splenocytes were co-cultured for 2 days with EXAMPLE A, its enantiomer or vehicle control before a 6 hour pulse with ^3H-Thy.

[2] = system: activated murine B cells; assay: LPS-stimulated B cell proliferation, 3H-Thy pulse; assay type: cell-based, mouse; settings: B6 B cells, in vitro stimulation with low doses of LPS, 6 hour pulse
Protocol: Untouched B cells from B6 mouse splenocytes were isolated by MACS separation. 2×10^5B cells were cultured with EXAMPLE A, its enantiomer or vehicle control and […] of lipopolysaccharide (LPS) before a 6 hour pulse with ^3H-Thy. Control vs EXAMPLE A (P<0.05 1-way ANOVA using Dunnett's post-hoc). One representative experiment (n=2) is shown.

[3] = system: naïve and memory T cells; assay: In vivo depletion of naïve and memory T cells in spleen and lymph nodes (flow cytometry); design: species or system C57BL/6 mice
Protocol: To determine if T cell sensitivity to ABT-737 treatment was predicated on the maturation or differentiation state of a T cell, C57BL/6 mice were treated for 14 consecutive days with either ABT-737 (75 mg/kg) or vehicle control. Spleen and lymph nodes were recovered and the numbers of […]), central memory ([…] effector memory (CD62LloCD44hi) cells determined by flow cytometry.

[4] = system: cytotoxic T lymphocytes (CTL); assay: In vivo CTL response after OVA priming; design: species or system C57BL/6 mice; settings: 75 mg/kg daily for a week, OVA priming on day 6, assay seven days after priming
Protocol: Having established the impact of ABT-737 on the steady state immune system, its effects on the development of specific immune responses were next examined. C57BL/6 mice were treated daily for a week with either ABT-737 (75 mg/kg) or vehicle control and on treatment day 6, mice were primed with ovalbumin (OVA) antigen in the form of irradiated OVA-coated H-2Kb+ splenocytes (OCS), a protocol known to induce cytotoxic T lymphocytes (CTL). Seven days after T-cell priming, in vivo CTL responses were assayed by measuring the persistence in spleen and lymph nodes of OVA peptide pulsed target cells, CFSE labeled and injected intravenously.

[5] = system: NP-specific B cell subsets (germinal center, memory and plasma cells); assay: In vivo B cell response to NP-KLH immunization; design: species or system mice; settings: for memory B cell compartment, established memory: treatment started at day 40 after immunization, 14 days, analyzed day 54; for frequency of ASC in the spleen or the bone marrow, established plasma cells: treatment starting day 40 after immunization
Protocol: Mice were immunized with NP-KLH in alum by intraperitoneal injection and then treated with ABT-737 (75 mg/kg) or vehicle control for 14 consecutive days, starting 5 days after immunization. On day 19 after immunization, the numbers of NP-specific B cell subsets (germinal center (GC), memory and plasma cells) were quantified. As depicted in FIG. 5A, FIG. 5B, FIG. 5C, FIG. 5D, FIG. 5E, and FIG. 5F, antigen-specific B cells were detected by flow cytometry on the basis of surface staining for B220, NP and IgG1. […] To determine if memory cells were sensitive during formation or maintenance, mice were immunized and memory was allowed to form before ABT-737 treatment started at day 40 after immunization. The mice were analyzed after 14 days of treatment with ABT-737 or vehicle, i.e., day 54 after immunization. […] Antibody secreting cells (ASC) are also generated during the B cell response to antigen, secreting antibodies specific for the antigen. In the later stages of T cell dependent immune responses, ASC originate in the GC, then migrate to the bone marrow where they compete for access to survival niches in order to become long-lived plasma cells.

[6] = system: islet allografts in spontaneously diabetic (RIP-Kb/CBA; H-2k) mice; assay: Allogenic islet graft rejection in diabetic mice; assay type: in vivo, mouse; settings: 50 mg/kg intra-peritoneal daily, 14 days; for islet allograft survival versus vehicle treated recipients: graft on day 6
Protocol: Non-immune diabetic mice were treated daily for 14 consecutive days with either ABT-737 (50 mg/kg) or vehicle control. On treatment day 6, mice received an allogenic grant of F1(B6×SJL) islets transplanted under the kidney capsule. Blood glucose was measured at various times post-transplantation. Grafts were deemed successful if normal blood glucose (<15 mmol/L) levels were achieved within 4 days post-transplantation.
Viable islets were handpicked under dissecting microscope, pooled and cultured overnight at a density of 200-300 islets/3.5 cm Petri dish in 1.1 ml DME supplemented with 10% FCS at 37° C.; 10% CO2. The following day viable islets were handpicked into aliquots of 400 (of an equivalent size distribution) before grafting into recipient mice.
Spontaneously diabetic (RIP-Kb/CBA; H-2^k) (Sutherland, R. M., Mountford, J. N., Allison, J., Harrison, L. C., & Lew, A. M., The non-immune RIP-Kb mouse is a useful host for islet transplantation, as the diabetes is spontaneous, mild and predictable. Int J Exp Diabetes Res, 2002, 3:37-45) male mice were treated daily for five consecutive days either with ABT-737 (50 mg/kg) or vehicle control via intra-peritoneal injection as described by Mason, K. D., Carpinelli, M. R., Fletcher, J. I., Collinge, J. E., Hilton, A. A., Ellis, S., Kelly, P. N., Ekert, P. G., Metcalf, D., Roberts, A. W., et al. Programmed anulear cell death delimits platelet life span. Cell (2007) 128:1173-1186. On day 6, mice received an allograft under the left kidney capsule consisting of 400 purified mouse pancreatic islets isolated from male and female donors [(C57Bl/6×SJL) F1; H-2^b,s]. Treatment was then continued daily for 8 days post transplantation. Graft function was monitored by diabetes reversal, determined by measuring blood glucose via tail vein bleed.

[7] = system: human pancreatic islets; assay: Predicted toxicity to pancreatic islets from Bcl-2 family expression profile; settings: predicted from expression profile of Bcl-2 family proteins such as Mcl-1
[8] = 75 mg/kg for 14 days starting 5 days after immunization, day 19
[9] = treatment starting on day 5 of the response

With `CN(C)CC[C@H](CSc1ccccc1)Nc1ccc(S(=O)(=O)NC(=O)c2ccc(N3CCN(Cc4ccccc4-c4ccc(Cl)cc4)CC3)cc2)cc1[N+](=O)[O-]` [EXAMPLE A, N-(4-(4-((4′-chloro(1,1′-biphenyl)-2-yl)methyl)piperazin-1-yl)benzoyl)-4-(((1R)-3-(dimethylamino)-1-((phenylsulfanyl)methyl)propyl)amino)-3-nitrobenzenesulfonamide] the “proliferation of activated T cells (3H-Thymidine incorporation)” value [1] was “inhibits proliferation of activated T cells in a dose dependent manner”, the “proliferation of activated murine B cells (3H-Thy)” value [2] was “inhibits proliferation of activated murine B cells” and the “central and effector memory CD4+ and effector CD8+ T cells in spleen” value ([3]; 75 mg/kg, 14 consecutive days) was “remain refractory”. For the same compound, the “numbers of naïve and memory T cells (CD4+ and CD8+) in lymph nodes” value ([3]; 75 mg/kg, 14 consecutive days) was “significantly reduced”, the “numbers of naïve cells and CD8+ central memory T cells in spleen” value ([3]; 75 mg/kg, 14 consecutive days) was “effectively reduced” and the “lymphocyte and dendritic cell sub-populations” value ([3]; mouse immune system, summary statement) was “depleted selective lymphocyte and dendritic cell sub-populations”. For the same compound, the CTL activity [4] was “significantly less CTL activity”, the “reduction in specific target lysis compared to vehicle treated controls” value [4] was “approximately 4 fold” and the “GC (CD38lo) B cells” value [5, 8] was “unaffected”. The “memory (CD38hi) B cells” value [5, 8] was “susceptive”, the “overall number of antigen-specific B cells (B220, NP, IgG1)” value [5, 8] was “no significant difference” and the “GC (CD38lo) B cells” value ([5]; 75 mg/kg for 14 days starting 5 days after immunization, day 19, listed as ABT-737) was “refractory”. For the same compound, the “memory B cell compartment, established memory” value [5] was “inhibited the persistence of memory B cells”, the “memory B cell compartment, established memory” value ([5]; listed as ABT-737) was “still affected” and the “frequency of ASC in the spleen or the bone marrow, established plasma cells” value [5] was “unaffected”. The “frequency of ASC in the spleen or the bone marrow, established plasma cells” value ([5]; listed as ABT-737) was “no reduction”, the “frequency of antigen-specific IgG1 ASC in the spleen” value [5, 9] was “significantly reduced” and the “frequency of total and high affinity NP-specific ASC in the bone marrow” value [5, 9] was “marked reduction”. For the same compound, the “islet allograft survival versus vehicle treated recipients” value [6] was “sufficiently immunosuppressive to allow long-term survival of pancreatic allografts”, the “islet allograft survival versus vehicle treated recipients” value ([6]; listed as ABT-737) was “functioned significantly longer; also recorded: survived longer” and the “duration of allograft function (all mice, n=5)” value ([6]; experiment terminated at 100 days) was ≥ 100 days post-transplantation. For the same compound, the “toxicity to human pancreatic islets” value [7] was “low toxicity”.
